Measured values: US11058680B2, “Combinations of opioid/TLR4 antagonists and acetaminophen for use in the treatment of emotional pain and insomnia” (Allodynic Threapeutics, LLC, priority 2016, dated 2021)
Several values for one entry are separate records, joined by “and”; a condition that tells them apart may be missing. Identical values can stand only once.

Tested on: migraine attacks
Assay: Naltrexone/acetaminophen open-label pilot study, acute treatment of migraine: headache pain (4-point scale; relief score ≤1, pain-free score = 0), associated symptoms, additional meds
Format: in vivo, human
Method: Sixteen unique patients were enrolled in an open phase pilot study for the acute treatment of migraine attacks, insomnia, and emotional pain. Of the sixteen patients, eleven were evaluated for one migraine attack, one for two attacks, two for four attacks, one for six attacks, and one for fourteen attacks. A total of forty-one […] treatments were evaluated. Patients received a single dose of one of the following treatment options:
The majority of the patients remained in the clinic for observation for 2 hours after dosing. They completed headache diary assessments immediately before and after dosing at time points: 7, 15, and 30 minutes; and 1, 1.5, 2, 3, 6, 12, 24, and 48 hours. Headache pain was assessed on a 4-point scale (0=none; 1=mild; 2=moderate; 3=severe). The assessment of photophobia, phonophobia, nausea, and neck/shoulder pain was assessed as present or absent. The assessment of emotional pain was recorded on a 4-point scale (0=none, 1=mild, 2=moderate, 3=severe). The assessment of difficulty sleeping or falling asleep (insomnia) was assessed on a 4-point scale (0=none, 1=mild, 2=moderate, 3=severe) at baseline, for the night before treatment and for the following nights at 24, and 48 hours. Patients recorded side effects severity at each time point. Patients recorded the time of the first rescue medication dose and all additional headache medications used within 48 hours. Patients were required to stay awake to record their assessments in the first 2 hours, sleeping was permitted thereafter. While asleep, assessments were completed according to patients' best estimation. For data analysis, it was assumed that a migraine attack is a unique patient. Patients were asked to specify (yes or no answer) to whether they experienced emotional pain symptoms such as: hurt feelings, sadness, fear, or anger. Patients who replied positively to having emotional pain were asked to specify the cause into one of the following options: relationship, work/school, money/debt, health, or loss/grief.

[1] = 1 h, NTX/APAP 3.25 mg/325 mg, NTX 3.25 mg
[2] = 1 h, NTX/APAP 5 mg/325 mg, NTX 5 mg
[3] = 1 h, NTX/APAP […]325 mg, NTX 1.5 mg
[4] = 1 h, naltrexone/acetaminophen 2.25 mg/325 mg (N=21), naltrexone 2.25 mg (N=9)
[5] = 90 min, NTX/APAP 2.25 mg/325 mg, NTX 2.25 mg
[6] = 90 min, NTX/APAP 3.25 mg/325 mg, NTX 3.25 mg
[7] = 90 min, NTX/APAP 5 mg/325 mg, NTX 5 mg
[8] = 90 min, NTX/APAP […]325 mg, NTX 1.5 mg
[9] = 90 min, naltrexone/acetaminophen 2.25 mg/325 mg (N=21), naltrexone 2.25 mg (N=9)
[10] = 2 h, NTX/APAP 2.25 mg/325 mg, NTX 2.25 mg
[11] = 2 h, NTX/APAP 3.25 mg/325 mg, NTX 3.25 mg
[12] = 2 h, NTX/APAP 5 mg/325 mg, NTX 5 mg
[13] = 2 h, NTX/APAP […]325 mg, NTX 1.5 mg
[14] = 2 h, naltrexone/acetaminophen 2.25 mg/325 mg (N=21), naltrexone 2.25 mg (N=9)
[15] = 3 h, NTX/APAP 2.25 mg/325 mg, NTX 2.25 mg

O=C1CC[C@@]2(O)[C@H]3Cc4ccc(O)c5c4[C@@]2(CCN3CC2CC2)[C@H]1O5 [naltrexone] was tested, and the Headache pain-relief [1] was 3 (100) n (%), the “Most bothersome symptom free” value [1] was 2 (66) n (%) and the Nausea-free [1] was 3 (100) n (%). For the same compound, the Neck/shoulder pain-free [1] was 3 (100) n (%), the Phonophobia-free [1] was 2 (66) n (%) and the Photophobia-free [1] was 1 (33) n (%). For the same compound, the Additional meds taken [2] was 0, the Headache pain-free [2] was 0 n (%) and the Headache pain-relief [2] was 1 n (%). For the same compound, the “Most bothersome symptom free” value [2] was 1 n (%), the Nausea-free [2] was 1 n (%) and the Neck/shoulder pain-free [2] was 1 n (%). The Phonophobia-free [2] was 1 n (%), the Photophobia-free [2] was 1 n (%) and the Additional meds taken [3] was 0. The Headache pain-free [3] was 1 (33) n (%), the Headache pain-relief [3] was 2 (66) n (%) and the “Most bothersome symptom free” value [3] was 1 (33) n (%). The Nausea-free [3] was 3 (100) n (%), the Neck/shoulder pain-free [3] was 2 (66) n (%) and the Phonophobia-free [3] was 1 (33) n (%). The Photophobia-free [3] was 2 (66) n (%), the Additional meds taken (1 h, all doses combined) was 0 and the Headache pain-free (1 h, all doses combined) was 8 (50) n (%). For the same compound, the Headache pain-relief (1 h, all doses combined) was 13 (81) n (%), the “Most bothersome symptom free” value (1 h, all doses combined) was 11 (69) n (%) and the Nausea-free (1 h, all doses combined) was 12 (75) n (%). The Neck/shoulder pain-free (1 h, all doses combined) was 12 (75) n (%), the Phonophobia-free (1 h, all doses combined) was 12 (75) n (%) and the Photophobia-free (1 h, all doses combined) was 10 (63) n (%). The Headache pain-free (1 h, naltrexone 1.5 mg (N=3)) was 33%, the Headache pain-free [4] was 44% and the Headache pain-relief [4] was 88%. The Most bothersome symptom-free [4] was 77%, the Headache pain-free (1 h, naltrexone/acetaminophen 3.25 mg/325 mg (N=3), naltrexone 3.25 mg (N=3)) was 100% and the Additional meds taken [5] was 0 (0). The Headache pain-free [5] was 7 (77) n (%), the Headache pain-relief [5] was 9 (100) n (%) and the “Most bothersome symptom free” value [5] was 9 (100) n (%). The Nausea-free [5] was 9 (100) n (%), the Neck/shoulder pain-free [5] was 9 (100) n (%) and the Phonophobia-free [5] was 9 (100) n (%). The Photophobia-free [5] was 8 (88) n (%), the Additional meds taken [6] was 0 (0) and the Headache pain-free [6] was 3 (100) n (%). The Headache pain-relief [6] was 3 (100) n (%), the “Most bothersome symptom free” value [6] was 2 (66) n (%) and the Nausea-free [6] was 2 (66) n (%). The Neck/shoulder pain-free [6] was 3 (100) n (%), the Phonophobia-free [6] was 2 (66) n (%) and the Photophobia-free [6] was 2 (66) n (%). The Additional meds taken [7] was 0 (0), the Headache pain-free [7] was 1 (100) n (%) and the Headache pain-relief [7] was 1 (100) n (%). The “Most bothersome symptom free” value [7] was 1 (100) n (%), the Nausea-free [7] was 1 (100) n (%) and the Neck/shoulder pain-free [7] was 1 (100) n (%). For the same compound, the Phonophobia-free [7] was 1 (100) n (%), the Photophobia-free [7] was 1 (100) n (%) and the Additional meds taken [8] was 0 (0). For the same compound, the Headache pain-free [8] was 1 (33) n (%), the Headache pain-relief [8] was 3 (100) n (%) and the “Most bothersome symptom free” value [8] was 2 (66) n (%). For the same compound, the Nausea-free [8] was 3 (100) n (%), the Neck/shoulder pain-free [8] was 1 (33) n (%) and the Phonophobia-free [8] was 1 (100) n (%). For the same compound, the Photophobia-free [8] was 1 (100) n (%), the Additional meds taken (90 min, all doses combined) was 0 and the Headache pain-free (90 min, all doses combined) was 13 (81) n (%). The Headache pain-relief (90 min, all doses combined) was 16 (100) n (%), the “Most bothersome symptom free” value (90 min, all doses combined) was 14 (88) n (%) and the Nausea-free (90 min, all doses combined) was 16 (100) n (%). The Neck/shoulder pain-free (90 min, all doses combined) was 14 (88) n (%), the Phonophobia-free (90 min, all doses combined) was 13 (81) n (%) and the Photophobia-free (90 min, all doses combined) was 12 (75) n (%). The Headache pain-free (90 min, naltrexone 1.5 mg (N=3)) was 100%, the Headache pain-free [9] was 77% and 100% and the Headache pain-relief [9] was 100%. For the same compound, the Most bothersome symptom-free [9] was 100%, the Headache pain-free (90 min, naltrexone/acetaminophen 3.25 mg/325 mg (N=3), naltrexone 3.25 mg (N=3)) was 100% and the Additional meds taken [10] was 0. The Headache pain-free [10] was 7 (77) n (%), the Headache pain-relief [10] was 9 (100) n (%) and the “Most bothersome symptom free” value [10] was 9 (100) n (%). For the same compound, the Nausea-free [10] was 9 (100) n (%), the Neck/shoulder pain-free [10] was 9 (100) n (%) and the Phonophobia-free [10] was 9 (100) n (%). The Photophobia-free [10] was 8 (88) n (%), the Additional meds taken [11] was 0 and the Headache pain-free [11] was 3 (100) n (%). For the same compound, the Headache pain-relief [11] was 3 (100) n (%), the “Most bothersome symptom free” value [11] was 3 (100) n (%) and the Nausea-free [11] was 3 (100) n (%). The Neck/shoulder pain-free [11] was 3 (100) n (%), the Phonophobia-free [11] was 3 (100) n (%) and the Photophobia-free [11] was 3 (100) n (%). For the same compound, the Additional meds taken [12] was 0, the Headache pain-free [12] was 1 n (%) and the Headache pain-relief [12] was 1 n (%). For the same compound, the “Most bothersome symptom free” value [12] was 1 n (%), the Nausea-free [12] was 1 n (%) and the Neck/shoulder pain-free [12] was 1 n (%). The Phonophobia-free [12] was 1 n (%), the Photophobia-free [12] was 1 n (%) and the Additional meds taken [13] was 0. For the same compound, the Headache pain-free [13] was 3 (100) n (%), the Headache pain-relief [13] was 3 (100) n (%) and the “Most bothersome symptom free” value [13] was 3 (100) n (%). The Nausea-free [13] was 3 (100) n (%), the Neck/shoulder pain-free [13] was 3 (100) n (%) and the Phonophobia-free [13] was 3 (100) n (%). The Photophobia-free [13] was 3 (100) n (%), the Additional meds taken (2 h, combined doses) was 0 and the Headache pain-free (2 h, combined doses) was 14 (88) n (%). The Headache pain-relief (2 h, combined doses) was 16 (100) n (%), the “Most bothersome symptom free” value (2 h, combined doses) was 16 (100) n (%) and the Nausea-free (2 h, combined doses) was 16 (100) n (%). The Neck/shoulder pain-free (2 h, combined doses) was 16 (100) n (%), the Phonophobia-free (2 h, combined doses) was 16 (100) n (%) and the Photophobia-free (2 h, combined doses) was 16 (100) n (%). For the same compound, the Headache pain-free (2 h, naltrexone 1.5 mg (N=3)) was 100%, the Headache pain-free [14] was 77% and 100% and the Headache pain-relief [14] was 100%. For the same compound, the Most bothersome symptom-free [14] was 100%, the Headache pain-free (2 h, naltrexone/acetaminophen 3.25 mg/325 mg (N=3), naltrexone 3.25 mg (N=3)) was 100% and the Additional meds taken [15] was 0 (0). For the same compound, the Headache pain-free [15] was 7 (77) n (%), the Headache pain-relief [15] was 9 (100) n (%) and the “Most bothersome symptom free” value [15] was 9 (100) n (%). For the same compound, the Nausea-free [15] was 9 (100) n (%), the Neck/shoulder pain-free [15] was 9 (100) n (%) and the Phonophobia-free [15] was 9 (100) n (%).
